In patent US7632918B2, “Semi-synthetic glycopeptides with antibiotic activity” (Novartis Vaccines and Diagnostics, Inc., priority 2005, dated 2009):
≈ marks a conversion by molar mass, not a printed value.

Experiments:
Assay in all cases: MIC, broth microdilution in Meuller-Hinton broth (NCCLS)
[1] = test system: 533 S. epidermidis; assay type: cell-based, Staphylococus epidermidis; conditions: clinical isolate
Protocol: (§1) Antibacterial activity in vitro was investigated by broth microdilution method in Meuller-Hinton broth as recommended by NCCLS. All strains tested were clinical isolates either sensitive or resistant to natural glycopeptides. Results are reported in the tables as MIC (minimal inhibitory concentration) in μg/ml.
(§2) The glycopeptides were tested against a variety of strains, indicated below, including Staphylococus epidermidis, Staphylococus haemolyticus, glycopeptides-intermediate Staphylococus aureus (GISA), glocopeptide-sensitive Enterococcus faecalis (GSE), and glocopeptide-resistant Enterococcus faecalis (GRE). Results are shown in the table as minimum inhibitory concentration (MIC) in units of μg/ml: […]

[2] = test system: 3798 S. aureus (GISA); assay type: cell-based, Staphylococus aureus; conditions: glycopeptides-intermediate clinical isolate
Protocol: as §1, §2

[3] = test system: 3797 S. aureus (GISA); assay type: cell-based, Staphylococus aureus; conditions: glycopeptides-intermediate clinical isolate
Protocol: as §1, §2

[4] = test system: 569 E. faecium (GRE); assay type: cell-based; conditions: glycopeptide-resistant clinical isolate
Protocol: as §1, §2

[5] = test system: 568 E. faecium (GSE); assay type: cell-based; conditions: glycopeptide-sensitive clinical isolate
Protocol: as §1, §2

[6] = test system: 559 E. faecalis (GSE); assay type: cell-based, Enterococcus faecalis; conditions: glycopeptide-sensitive clinical isolate
Protocol: as §1, §2

[7] = test system: 560 E. faecalis (GRE); assay type: cell-based, Enterococcus faecalis; conditions: glycopeptide-resistant clinical isolate
Protocol: as §1, §2

[8] = test system: 602 S. haemolyticus; assay type: cell-based, Staphylococus haemolyticus; conditions: clinical isolate
Protocol: as §1, §2

Compound | MIC 533 S. epidermidis [1] | MIC 3798 S. aureus (GISA) [2] | MIC 3797 S. aureus (GISA) [3] | MIC 569 E. faecium (GRE) [4] | MIC 568 E. faecium (GSE) [5] | MIC 559 E. faecalis (GSE) [6] | MIC 560 E. faecalis (GRE) [7] | MIC 602 S. haemolyticus [8]
CCCCCCCCCCN(CCCCCCCCCC)CC(=O)NC1(C)CC(OC2C(Oc3c4cc5cc3Oc3ccc(cc3Cl)C(O)C(NC(=O)C(CC(C)C)NC)C(=O)NC(CC(N)=O)C(=O)NC5C(=O)NC3C(=O)NC(C(=O)NC(C(=O)O)c5cc(O)cc(O)c5-c5cc3ccc5O)C(OC3CC(C)(N)C(O)C(C)O3)c3ccc(cc3)O4)OC(CO)C(O)C2O)OC(C)C1O (stereo not shown) [Compound 194] | 2 µg/mL (≈ 1.06 µM) | 8 µg/mL (≈ 4.22 µM) | 8 µg/mL (≈ 4.22 µM) | 8 µg/mL (≈ 4.22 µM) | 2 µg/mL (≈ 1.06 µM) | 4 µg/mL (≈ 2.11 µM) | 16 µg/mL (≈ 8.44 µM) | 2 µg/mL (≈ 1.06 µM)
CCCCOc1ccc(CNCC(=O)NC2(C)CC(OC3C(Oc4c5cc6cc4Oc4ccc(cc4Cl)C(O)C(NC(=O)C(CC(C)C)NC)C(=O)NC(CC(N)=O)C(=O)NC6C(=O)NC4C(=O)NC(C(=O)NC(C(=O)O)c6cc(O)cc(O)c6-c6cc4ccc6O)C(OC4CC(C)(N)C(O)C(C)O4)c4ccc(cc4)O5)OC(CO)C(O)C3O)OC(C)C2O)cc1 (stereo not shown) [Compound 193] | 0.5 µg/mL (≈ 0.281 µM) | 4 µg/mL (≈ 2.25 µM) | 4 µg/mL (≈ 2.25 µM) | 64 µg/mL (≈ 36 µM) | 1 µg/mL (≈ 0.563 µM) | 2 µg/mL (≈ 1.13 µM) | 64 µg/mL (≈ 36 µM) | 1 µg/mL (≈ 0.563 µM)
CNC(CC(C)C)C(=O)NC1C(=O)NC(CC(N)=O)C(=O)NC2C(=O)NC3C(=O)NC(C(=O)NC(C(=O)O)c4cc(O)cc(O)c4-c4cc3ccc4O)C(OC3CC(C)(N)C(O)C(C)O3)c3ccc(cc3)Oc3cc2cc(c3OC2OC(CO)C(O)C(O)C2OC2CC(C)(NC(=O)[C@@H](N)Cc3ccc(OCc4ccccc4)cc3)C(O)C(C)O2)Oc2ccc(cc2Cl)C1O (stereo partly shown) [Compound 228] | 4 µg/mL (≈ 2.21 µM) | 16 µg/mL (≈ 8.83 µM) | 16 µg/mL (≈ 8.83 µM) | >64 µg/mL | 2 µg/mL (≈ 1.1 µM) | 2 µg/mL (≈ 1.1 µM) | >64 µg/mL | 4 µg/mL (≈ 2.21 µM)
CCCCN(CCCC)c1ccc(CNCC(=O)NC2(C)CC(OC3C(Oc4c5cc6cc4Oc4ccc(cc4Cl)C(O)C(NC(=O)C(CC(C)C)NC)C(=O)NC(CC(N)=O)C(=O)NC6C(=O)NC4C(=O)NC(C(=O)NC(C(=O)O)c6cc(O)cc(O)c6-c6cc4ccc6O)C(OC4CC(C)(N)C(O)C(C)O4)c4ccc(cc4)O5)OC(CO)C(O)C3O)OC(C)C2O)cc1 (stereo not shown) [Compound 187] | 1 µg/mL (≈ 0.546 µM) | 8 µg/mL (≈ 4.37 µM) | 8 µg/mL (≈ 4.37 µM) | 32 µg/mL (≈ 17.5 µM) | 1 µg/mL (≈ 0.546 µM) | 2 µg/mL (≈ 1.09 µM) | 32 µg/mL (≈ 17.5 µM) | 1 µg/mL (≈ 0.546 µM)
CNC(CC(C)C)C(=O)NC1C(=O)NC(CC(N)=O)C(=O)NC2C(=O)NC3C(=O)NC(C(=O)NC(C(=O)O)c4cc(O)cc(O)c4-c4cc3ccc4O)C(O)c3ccc(c(Cl)c3)Oc3cc2cc(c3OC2OC(CO)C(O)C(O)C2OC2CC(C)(NC(=O)CNCc3ccc(C(F)(F)F)cc3)C(O)C(C)O2)Oc2ccc(cc2Cl)C1O (stereo not shown) [Compound 290] | 4 µg/mL (≈ 2.4 µM) | 4 µg/mL (≈ 2.4 µM) | 4 µg/mL (≈ 2.4 µM) | >64 µg/mL | 4 µg/mL (≈ 2.4 µM) | 2 µg/mL (≈ 1.2 µM) | >64 µg/mL | 4 µg/mL (≈ 2.4 µM)
CCCCCCCCOc1ccc(CNC(CCCN)C(=O)NC2(C)CC(OC3C(Oc4c5cc6cc4Oc4ccc(cc4Cl)C(O)C4NC(=O)C(NC(=O)C6NC(=O)C(CC(N)=O)NC(=O)C(NC(=O)C(CC(C)C)NC)C(O)c6ccc(c(Cl)c6)O5)c5ccc(O)c(c5)-c5c(O)cc(O)cc5C(C(=O)O)NC4=O)OC(CO)C(O)C3O)OC(C)C2O)cc1 (stereo not shown) [Compound 241] | 0.5 µg/mL (≈ 0.281 µM) | 2 µg/mL (≈ 1.12 µM) | 2 µg/mL (≈ 1.12 µM) | 16 µg/mL (≈ 8.98 µM) | 1 µg/mL (≈ 0.561 µM) | 1 µg/mL (≈ 0.561 µM) | 16 µg/mL (≈ 8.98 µM) | 1 µg/mL (≈ 0.561 µM)
N′-stilbenylHNCH2CO eremomycin [Compound 192] | 0.5 µg/mL | 8 µg/mL | 8 µg/mL | 4 µg/mL | 0.5 µg/mL | 1 µg/mL | 8 µg/mL | 0.5 µg/mL
CNC(CC(C)C)C(=O)NC1C(=O)NC(CC(N)=O)C(=O)NC2C(=O)NC3C(=O)NC(C(=O)NC(C(=O)O)c4cc(O)cc(O)c4-c4cc3ccc4O)C(O)c3ccc(c(Cl)c3)Oc3cc2cc(c3OC2OC(CO)C(O)C(O)C2OC2CC(C)(NC(=O)CNCc3ccc(F)cc3)C(O)C(C)O2)Oc2ccc(cc2Cl)C1O (stereo not shown) [Compound 291] | 4 µg/mL (≈ 2.48 µM) | 4 µg/mL (≈ 2.48 µM) | 4 µg/mL (≈ 2.48 µM) | 8 µg/mL (≈ 4.96 µM) | 1 µg/mL (≈ 0.619 µM) | 1 µg/mL (≈ 0.619 µM) | 8 µg/mL (≈ 4.96 µM) | 4 µg/mL (≈ 2.48 µM)
CNC(CC(C)C)C(=O)NC1C(=O)NC(CC(N)=O)C(=O)NC2C(=O)NC3C(=O)NC(C(=O)NC(C(=O)O)c4cc(O)cc(O)c4-c4cc3ccc4O)C(OC3CC(C)(N)C(O)C(C)O3)c3ccc(cc3)Oc3cc2cc(c3OC2OC(CO)C(O)C(O)C2OC2CC(C)(NC(=O)[C@@H](N)Cc3ccccc3)C(O)C(C)O2)Oc2ccc(cc2Cl)C1O (stereo partly shown) [Compound 230] | 4 µg/mL (≈ 2.35 µM) | >32 µg/mL | >32 µg/mL | >64 µg/mL | 2 µg/mL (≈ 1.17 µM) | 2 µg/mL (≈ 1.17 µM) | >64 µg/mL | 4 µg/mL (≈ 2.35 µM)
CNC(CC(C)C)C(=O)NC1C(=O)NC(CC(N)=O)C(=O)NC2C(=O)NC3C(=O)NC(C(=O)NC(C(=O)O)c4cc(O)cc(O)c4-c4cc3ccc4O)C(O)c3ccc(c(Cl)c3)Oc3cc2cc(c3OC2OC(CO)C(O)C(O)C2OC2CC(C)(NC(=O)CNc3ccc4ccccc4n3)C(O)C(C)O2)Oc2ccc(cc2Cl)C1O (stereo not shown) [Compound 298] | 8 µg/mL (≈ 4.9 µM) | 8 µg/mL (≈ 4.9 µM) | 8 µg/mL (≈ 4.9 µM) | >64 µg/mL | 4 µg/mL (≈ 2.45 µM) | 2 µg/mL (≈ 1.22 µM) | 64 µg/mL (≈ 39.2 µM) | 8 µg/mL (≈ 4.9 µM)
CNC(CC(C)C)C(=O)NC1C(=O)NC(CC(N)=O)C(=O)NC2C(=O)NC3C(=O)NC(C(=O)NC(C(=O)O)c4cc(O)cc(O)c4-c4cc3ccc4O)C(OC3CC(C)(N)C(O)C(C)O3)c3ccc(cc3)Oc3cc2cc(c3OC2OC(CO)C(O)C(O)C2OC2CC(C)(NC(=O)CNCc3cn(Cc4ccccc4)c4ccccc34)C(O)C(C)O2)Oc2ccc(cc2Cl)C1O (stereo not shown) [Compound 225] | 1 µg/mL (≈ 0.545 µM) | 4 µg/mL (≈ 2.18 µM) | 4 µg/mL (≈ 2.18 µM) | 16 µg/mL (≈ 8.72 µM) | 4 µg/mL (≈ 2.18 µM) | 2 µg/mL (≈ 1.09 µM) | 64 µg/mL (≈ 34.9 µM) | 2 µg/mL (≈ 1.09 µM)
CCCCc1ccc(CNCC(=O)NC2(C)CC(OC3C(Oc4c5cc6cc4Oc4ccc(cc4Cl)C(O)C(NC(=O)C(CC(C)C)NC)C(=O)NC(CC(N)=O)C(=O)NC6C(=O)NC4C(=O)NC(C(=O)NC(C(=O)NC(C)C67CC8CC(CC(C8)C6)C7)c6cc(O)cc(O)c6-c6cc4ccc6O)C(OC4CC(C)(N)C(O)C(C)O4)c4ccc(cc4)O5)OC(CO)C(O)C3O)OC(C)C2O)cc1 (stereo not shown) [Compound 264] | 4 µg/mL (≈ 2.08 µM) | 16 µg/mL (≈ 8.32 µM) | 8 µg/mL (≈ 4.16 µM) | 8 µg/mL (≈ 4.16 µM) | 4 µg/mL (≈ 2.08 µM) | 4 µg/mL (≈ 2.08 µM) | 8 µg/mL (≈ 4.16 µM) | 8 µg/mL (≈ 4.16 µM)
CCCCc1ccc(CNCC(=O)NC2(C)CC(OC3C(Oc4c5cc6cc4Oc4ccc(cc4Cl)C(O)C(NC(=O)C(CC(C)C)NC)C(=O)NC(CC(N)=O)C(=O)NC6C(=O)NC4C(=O)NC(C(=O)NC(C(=O)NC6C7CC8CC(C7)CC6C8)c6cc(O)cc(O)c6-c6cc4ccc6O)C(OC4CC(C)(N)C(O)C(C)O4)c4ccc(cc4)O5)OC(CO)C(O)C3O)OC(C)C2O)cc1 (stereo not shown) [Compound 263] | 8 µg/mL (≈ 4.22 µM) | 16 µg/mL (≈ 8.45 µM) | 16 µg/mL (≈ 8.45 µM) | 8 µg/mL (≈ 4.22 µM) | 8 µg/mL (≈ 4.22 µM) | 8 µg/mL (≈ 4.22 µM) | 8 µg/mL (≈ 4.22 µM) | 8 µg/mL (≈ 4.22 µM)
CCCCCCCCCC(=O)NCC(=O)NC1(C)CC(OC2C(Oc3c4cc5cc3Oc3ccc(cc3Cl)C(O)C(NC(=O)C(CC(C)C)NC)C(=O)NC(CC(N)=O)C(=O)NC5C(=O)NC3C(=O)NC(C(=O)NC(C(=O)O)c5cc(O)cc(O)c5-c5cc3ccc5O)C(OC3CC(C)(N)C(O)C(C)O3)c3ccc(cc3)O4)OC(CO)C(O)C2O)OC(C)C1O (stereo not shown) [Compound 186] | 2 µg/mL (≈ 1.13 µM) | 16 µg/mL (≈ 9.04 µM) | 16 µg/mL (≈ 9.04 µM) | >64 µg/mL | 1 µg/mL (≈ 0.565 µM) | 2 µg/mL (≈ 1.13 µM) | >64 µg/mL | 2 µg/mL (≈ 1.13 µM)
